Test results from patent US20220193010A1, “METHODS OF USING DIPIVEFRIN” (INSIGNIS THERAPEUTICS, INC., priority 2017, published 2022).
Structures can show the parent of a compound that is named as a salt.

Experiments:
[1] = for clinical observations after IM injection: dose equivalent to 0.3 mg epinephrine, 3 mice per group
[2] = tested on: methicillin-resistant Staphylococcus aureus (MRSA) NRS71-Sanger 252; test: Peritonitis-sepsis model of MRSA infection; format: in vivo, C57BL/6J mice
Description: Two (2) groups of C57BL/6J 6 to 8 week old female mice (ca 20 g body weight) with 10 mice/group were injected IP with 2×10^8 CFU/mL of methicillin-resistant Staphylococcus aureus (MRSA) NRS71-Sanger 252 in a volume of 200 μL. The treatment group was dosed with dipivefrin 15.3 mg/kg (freebase) by oral gavage starting at t=−5 days relative to bacterial inoculation. Dosing occurred once daily up to 7 days post bacterial inoculation. Body weights were measured once per day on days 0 to 7 and the experimental endpoint was survival at 7 days. Animals falling below 20% of original weight post-infection was euthanized. Four hours (4 hours) post infection, blood was drawn from 4 animals in each group and bacterial load was determined through a standard plating assay. Each blood sample was diluted by serial log dilutions and 10 dilutions (100 to 10-s) was plated in duplicate on TSA with 5% sheep's blood. The plates were incubated for 24 hours at 37° C. at which time formed colonies was enumerated and CFU/mL was determined. One mouse in the vehicle group was found dead the next day following infection and no subsequent death occurred up to 7 days post infection. No mouse died in the treatment group up to 7 days post infection.

[3] = Pharmacokinetic profile after single oral administration in mice (plasma epinephrine by LC/MS/MS); format: in vivo, C57BL6 mice; conditions: oral (also IM and IP) administration
Description: Male C57BL6 mice, approximately 14 weeks of age and weighing between 28 and 31 g, were placed in an anesthesia chamber and transiently anesthetized with isoflurane (Henry Schein). After approximately 5 minutes and in the absence of reflex (toe pinch), mice were bled via retro-orbital sinus at t=0 (pre-dose). […] Following oral administration, mice were then retro-orbital bled under anesthesia at the following time points post-dose: 15, 30, 1 h, 2 h, 4 h, and 6 h. About 45 μl of the diluted plasma was recovered and plated. The plasma samples were analyzed for epinephrine using a validated LC/MS/MS method (Keystone Bioanalytics, North Wales Pa.).

[4] = tested on: B16-F10 syngeneic melanoma tumors; test: Subcutaneous B16-F10 syngeneic melanoma tumor model, oral dipivefrin as single agent; format: in vivo, C57BL/6J mice; conditions: for MST (median survival time): vehicle 17.0
Excerpt: The treatments were started 7 days before tumor inoculation per study design (day −7).
The endpoints of the study included the following: tumor growth inhibition (TGJ); reduction in median tumor volume on a given day; survival of all animals will be followed and Median Survival Time (MST) and increase in life-span (ILS) will be calculated for each group.
The percent tumor growth inhibition (TGJ %) is an indication of antitumor effectiveness, and is expressed as: TGJ (%)=100× (1-TIC), in which T and C are the mean tumor volume of the treated and control groups, respectively, on a given day.
The endpoint for each mouse is either a tumor volume >3000 mm^3 or the animal is in extreme discomfort (such as pain, seizure, difficulty breathing, etc.). The increase in life-span (ILS) is calculated as follows: ILS (%)=100× [(Median Survival Time of drug treated group/Median Survival Time of vehicle group)−1] (%)
Female C57BL/6J mice (Shanghai Lingchang Bio-Technology Co. Ltd (LC, Shanghai, China; Animal Certificate No.: 2013001825675) were used in the study. At inoculation, mice were 7-8 weeks old with a body weight of 16.2-18.6 g. The mice were kept in an Individually Ventilated Cage (IVC) system at constant temperature (22˜24° C.) and humidity (60-70%) with 5 animals in each cage. Animals had free access during the entire study period to a standard mouse diet (a Co^60 irradiation-sterilized dry granule food) and water.
The test articles used in the study were dipivefrin hydrochloride (1.9 mg/ml freebase, pre-formulated dosing solution) or the vehicle (purified water containing 0.005% wt of benzalkonium chloride as preservative). Each was stored at 4° C. The B16-F10 tumor cells were maintained in vitro as a monolayer culture in DMEM medium supplemented with 10% fetal bovine serum at 37° C. in an atmosphere of 5% CO2 in air. The tumor cells were routinely subcultured twice per week. The cells growing in an exponential growth phase were harvested and counted for tumor inoculation.
Each mouse was inoculated subcutaneously at the right flank region with 2×10^5 B16F10 tumor cells in 0.1 ml of PBS for tumor development. The treatments were started 7 days prior to the inoculation. The test article was administered to the tumor-bearing mice according to the predetermined regimen as shown in the Study Design Table 3. The date of tumor cell inoculation was denoted as day 0.
First grouping: On day 7, all 30 animals were weighed and the body weight was used as numeric parameter to randomize selected animals into two groups in an effort to minimize systematic error.
Second grouping: On day 8, all 20 animals in group-1 were randomized into two groups (1a and 1b) based on tumor volume. Dose administrations were performed as shown Table 5.
After tumor cell inoculation, animals were checked daily for morbidity and mortality. At the time of routine monitoring, the animals were checked for any effects of tumor growth and treatments on normal behavior such as mobility, food and water consumption, body weight gain/loss (body weights were measured twice or thrice per week), eye/hair matting and any other abnormal effect. Death and observed clinical signs were recorded on the basis of the numbers of animals within each subset.
Tumor volumes were measured twice or thrice per week in two dimensions using a caliper, with the volume in mm^3 estimated using the formula: V=0.5 a×b^2 where a and b are the long and short perpendicular diameters of the tumor, respectively. The procedures of dosing as well as tumor and body weight measurement were conducted in a Laminar Flow Cabinet.
On day 17, mice which tumor volumes exceeded 3000 mm^3 were euthanized and the whole study was terminated on day 19. Additionally, mouse #15 in group 1-b was dead on day 13 due to an operation error, while mouse #7 in group 1-a was found dead on day 18 due to tumor ulceration. […]

[5] = tested on: influenza A/California/04/2009 (H1N1pdm) virus; test: Influenza A (H1N1pdm) virus infection in mice, single oral dose; format: in vivo, C57BL/6J mice; conditions: for body weight loss during infection vs placebo: single p.o. dose 8.48 mg/kg 24 hours after infection, 6-day observation, p<0.05 days 5 and 6; for body weight loss during infection vs placebo / influenza virus titers in lung tissues vs placebo: 8.48 mg/kg; for influenza virus titers in lung tissues vs placebo: day 3 or 6 p.i.
in vivo = format: in vivo, New Zealand White Rabbits
[6] = human, in vivo, im; cited from earlier work
[7] = beagle dogs N=3, IM 0.3 mg, mean ± SEM
Description: Four days prior to study initiation, 1 mL of whole blood was collected from four (n=4) non-naive male Beagle dogs, aged 1.5-6.5 years and ranging from 9.8 to 10.8 kilograms in weight, into 4 chilled tubes containing K2EDTA. The blood was processed to plasma and plasma cholinesterase activity was assayed according to the Ellman method using acetylthiocholine iodide as the substrate (Ellman, G. L. et al Biochemical Pharmacology, 1961, volume 7, page 88-95). Based on the plasma cholinesterase activity assay results, the first three dogs with highest plasma cholinesterase activity were selected for the PK study.
The dogs were housed one per cage and identified by ear tags and cage labels. The animals were healthy at the start of the study. Primary enclosures were as specified in the USDA Animal Welfare Act (9 CFR, Parts 1, 2, and 3) and as described in the Guide for Care and Use of Laboratory Animals (ILAR publication, 2011, National Academy Press). Animals were fasted for a minimum of 12 hours prior to dosing and returned 4 hours post dose; Water was supplied ad libitum to the animals.
Dosing occurred at 0 hours on the appropriate day in accordance with the Study Design table (Table 11). […] The intramuscular dose was administered via 25 gauge needle and syringe into the lateral aspect of the left or right thigh. […]

CNC[C@H](O)c1ccc(O)c(O)c1 [epinephrine bitartrate]
mice found dead ([1]; IM epinephrine bitartrate 0.546 mg (0.3 mg freebase), approximately 20 minutes post administration): Two out of three
clinical observations after IM injection ([1]; mice): cold and lethargic approximately 5 minutes after IM injection

CNCC(O)c1ccc(OC(=O)C(C)(C)C)c(OC(=O)C(C)(C)C)c1 (stereo not drawn) [dipivefrin, 4-(1-hydroxy-2-(methylamino)ethyl)-1,2-phenylene bis(2,2-dimethylpropanoate)]
survival at 7 days post infection ([2]; 15.3 mg/kg (freebase) oral gavage once daily from day -5 to day 7, 10 mice): No mouse died
blood bacterial counts ([2]; 4 hours post infection, 4 animals per group, p<0.05): significantly higher for the vehicle treated group than the drug treated group
absorption and biotransformation into epinephrine [3]: absorbed and biotransformed into epinephrine rapidly
median tumor volume ([4]; 14 days post B16F10 inoculation, 15.3 mg/kg p.o. QD, vehicle 1060, p<0.05): 827 mm^3
ILS (increase in life-span) ([4]; Group-1b vs vehicle group 1a, p=0.038): 12%
MST (median survival time) ([4]; Group-1b, 15.3 mg/kg p.o. from day 8): 19.0 days
MST (median survival time) ([4]; Group-2, 15.3 mg/kg p.o. from day -7): 18.0 days
ILS (increase in life-span) ([4]; Group-2 vs vehicle, p=0.175): 6%
mean tumor volume ([4]; day 19, group 1b, 15.3 mg/kg p.o. QD from day 8 (established tumor), vehicle 3668.0±311.9): 2997.2±341.6 mm^3
reduction in mean tumor volume compared to vehicle ([4]; day 19, group 1b, dosing from day 8): about 18%
body weight loss during infection vs placebo [5]: losing less weight
influenza virus titers in lung tissues vs placebo ([5]; single p.o. dose 8.48 mg/kg): did not differ significantly
visual lung hemorrhage score (scale 0 to 4) ([5]; single p.o. dose 8.48 mg/kg, lungs day 3 and day 6 p.i.): 0-3
lung virus titers day 6 p.i. vs day 3 p.i. ([5]; single p.o. dose 8.48 mg/kg, p<0.05): lower virus titers in lung tissues on day 6 p.i. than on day 3 p.i

CNCC(O)c1ccc(OC(=O)C(C)(C)C)c(OC(=O)C(C)(C)C)c1 (stereo not drawn) [Dipivefrin HCl, Dipivefrin hydrochloride]
drug related deaths ([4]; 15.3 mg/kg (freebase) p.o. daily, study period): no drug related deaths were observed
effect on body weight ([4]; 15.3 mg/kg (freebase) p.o. daily, tumor-bearing mice): no effect on body weight
mean tumor volume ([4]; 5 days post B16F10 inoculation, 15.3 mg/kg p.o. QD from day -7, vehicle 16.4±2.5, p<0.01): 6.2±1.1 mm^3
absorption and conversion into epinephrine ([1]; mice, IM 0.636 mg): absorbed rapidly upon IM injection and quickly converted into epinephrine
clinical observations after IM injection ([1]; mice): appeared to be normal throughout the study and showed no signs of distress or illness
body weight loss during infection vs placebo ([5]; hydrochloride): less weight loss compared to placebos
influenza virus titers in lung tissues vs placebo ([5]; single p.o. dose 8.48 mg/kg, hydrochloride): slightly lower in treated mice compared to placebos, the difference was not statistically significant

CNC[C@H](O)c1ccc(O)c(O)c1 [Epinephrine]
AUC(0-t) (in vivo; female, New Zealand White, rabbit, in vivo, im, 0.3 mg): 19.6 ng·h/mL
Cmax (plasma epinephrine) (in vivo; rabbits, IM 0.3 mg, mean±SEM): 50.23 ± 14.95 ng/mL
Tmax [6]: 1.12 ± 0.717 h
AUClast (plasma epinephrine) [7]: 147.37 ± 39.41 ng·min/mL
